According to patent publication US10189854B2, “Substituted pyrimidine compounds” (Grünenthal GmbH, priority 2014, dated 2019):

Molecular target: human PDE4B1 (Homo sapiens (Human), UniProt Q07343)
Experiment: cAMP HTRF assay to determine the activity of hPDE4B1
Type: biochemical
Conditions: IC50 inhibition of PDE4B; human recombinant PDE4B1, cAMP HTRF assay
Procedure: Biological Testing cAMP HTRF® Assay to Determine the Activity of hPDE4B1
The inhibiting effect of the compounds on the enzyme activity of human PDE4B1 was measured by the quantification of 5′-adenosine monophosphate (5′-AMP), which is formed from 3′,5′-cyclic adenosine monophosphate (cAMP). Human recombinant enzyme, expressed in Sf9 cells, and the HTRF (homogeneous time-resolved fluorescence) detection method were used in the assay.
The test compound or water (control) was mixed with the human recombinant PDE4B1 enzyme (4.8 U) in a buffer consisting of 44.4 mM tris-HCl, 5.28 mM MgCl2, 2.64 mM DTT and 0.044% Tween 20 (pH 7.8). After adding the cAMP enzyme substrate (final concentration 40 nM), the mixture was incubated for 30 minutes at room temperature. Then a fluorescence acceptor (Dye2 marked with cAMP), a fluorescence donor (anti-cAMP antibody marked with a europium cryptate) and the non-specific phosphodiesterase inhibitor IBMX (3-isobutyl-1-methylxanthine; final concentration 1 mM) were added. After 60 min the fluorescence transfer, which correlates with the amount of remaining cAMP, was measured with a microplate reader (Rubystar, BMG) at λex=337 nm, λem=620 nm and λem=665 nm. The enzyme activity was calculated from the quotient formed from the measured signal at 665 nm and that at 620 nm. The result was expressed as the percentage inhibition of enzyme activity of the control (without PDE4 inhibitor). The enzyme was omitted for measurement of the basal control.
[N. Saldou et al., Comparison of recombinant human PDE4 isoforms: interaction with substrate and inhibitors, Cell. Signal. Vol. 10, No. 6, 427-440, 1998]. Several compounds according to the invention are tested in the above-described assay.

human PDE4B1, sequence (Q07343 whole entry): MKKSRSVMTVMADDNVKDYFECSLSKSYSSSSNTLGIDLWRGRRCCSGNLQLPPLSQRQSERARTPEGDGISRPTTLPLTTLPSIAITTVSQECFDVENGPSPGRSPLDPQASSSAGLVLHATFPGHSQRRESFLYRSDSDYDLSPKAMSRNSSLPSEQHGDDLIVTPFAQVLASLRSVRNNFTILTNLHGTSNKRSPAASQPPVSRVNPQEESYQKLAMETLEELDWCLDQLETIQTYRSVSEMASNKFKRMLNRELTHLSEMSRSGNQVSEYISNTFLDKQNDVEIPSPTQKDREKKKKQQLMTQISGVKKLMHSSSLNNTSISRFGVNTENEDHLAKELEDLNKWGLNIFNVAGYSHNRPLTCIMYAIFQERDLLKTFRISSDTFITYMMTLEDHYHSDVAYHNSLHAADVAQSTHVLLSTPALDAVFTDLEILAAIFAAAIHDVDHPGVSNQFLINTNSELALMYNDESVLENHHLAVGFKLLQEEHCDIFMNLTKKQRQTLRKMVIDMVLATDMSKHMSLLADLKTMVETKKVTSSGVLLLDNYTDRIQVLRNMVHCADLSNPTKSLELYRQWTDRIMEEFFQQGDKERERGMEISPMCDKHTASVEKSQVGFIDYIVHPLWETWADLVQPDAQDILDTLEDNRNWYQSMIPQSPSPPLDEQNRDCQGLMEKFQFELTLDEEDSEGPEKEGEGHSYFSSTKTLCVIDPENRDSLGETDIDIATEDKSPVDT

SMILES | IC50
N#Cc1ccc(-c2cnc(N3CC4(CC4)c4ccc(C(=O)N5CCOCC5)cc43)nc2)c(F)c1 [Compound 30, 3-Fluoro-4-[2-[6-(morpholine-4-carbonyl)-spiro[1,2-dihydro-indole-3,1′-cyclopropane]-1-yl]-pyrimidin-5-yl]-benzonitrile] | 0.1 to 1 µM
NC(=O)c1cccc(F)c1-c1cnc(N2CC3(CC3)c3ccc(C(=O)N4CCOCC4)cc32)nc1 [Compound 32, 3-Fluoro-2-[2-[6-(morpholine-4-carbonyl)-spiro[1,2-dihydro-indole-3,1′-cyclopropane]-1-yl]-pyrimidin-5-yl]-benzamide] | 0.1 to 1 µM
NC(=O)c1ccc(F)c(-c2cnc(N3CC4(CC4)c4ccc(C(=O)N5CCOCC5)cc43)nc2)c1 [Compound 35, 4-Fluoro-3-[2-[6-(morpholine-4-carbonyl)-spiro[1,2-dihydro-indole-3,1′-cyclopropane]-1-yl]-pyrimidni-5-yl]-benzamide] | < 0.1 µM
CS(=O)(=O)c1ccc(F)c(-c2cnc(N3CC4(CC4)c4ccc(C(=O)N5CCOCC5)cc43)nc2)c1 [Compound 42, [1-[5-(2-Fluoro-5-methylsulfonyl-phenyl)-pyrimidin-2-yl]-spiro[1,2-dihydro-indole-3,1′-cyclopropane]-6-yl]-morpholin-4-yl-methanone] | < 0.1 µM
O=C(c1ccc2c(c1)N(c1ncc(-c3ccc(F)cc3)cn1)CC21CC1)N1CCOCC1 [Compound 43, [1-[5-(4-Fluorophenyl)-pyrimidin-2-yl]-spiro[1,2-dihydro-indole-3,1′-cyclopropane]-6-yl]-morpholin-4-yl-methanone] | < 0.1 µM
COc1cccc(-c2cnc(N3CC4(CC4)c4ccc(C(=O)N5CCOCC5)cc43)nc2)c1 [Compound 48, [1-[5-(3-Methoxyphenyl)-pyrimidin-2-yl]-spiro[1,2-dihydro-indole-3,1′-cyclopropane]-6-yl]-morpholin-4-yl-methanone] | < 0.1 µM
O=C(c1ccc2c(c1)N(c1ncc(-c3ccccc3)cn1)CC21CC1)N1CCNCC1 [Compound 49, [1-(5-Phenyl-pyrimidin-2-yl)-spiro[1,2-dihydro-indole-3,1′-cyclopropane]-6-yl]-piperazin-1-yl-methanone] | < 0.1 µM
O=C(c1ccc2c(c1)N(c1ncc(-c3cc(F)cc(F)c3)cn1)CC21CC1)N1CCOCC1 [Compound 50, [1-[5-(3,5-Difluoro-phenyl)-pyrimidin-2-yl]-spiro[1,2-dihydro-indole-3,1′-cyclopropane]-6-yl]-morpholin-4-ylmethanone] | < 0.1 µM
O=C(c1ccc2c(c1)N(c1ncc(-c3cccc(Cl)c3)cn1)CC21CC1)N1CCOCC1 [Compound 51, [1-[5-(3-Chlorophenyl)-pyrimidin-2-yl]-spiro[1,2-dihydro-indole-3,1′-cyclopropane]-6-yl]-morpholin-4-yl-methanone] | 0.1 to 1 µM
Cc1ccc(F)c(-c2cnc(N3CC4(CC4)c4ccc(C(=O)N5CCOCC5)cc43)nc2)c1 [Compound 52, [1-[5-(2-Fluoro-5-methyl-phenyl)-pyrimidin-2-yl]-spiro[1,2-dihydro-indole-3,1′-cyclopropane]-6-yl]-morpholin-4-yl-methanone] | < 0.1 µM
O=C(c1ccc2c(c1)N(c1ncc(-c3ccc(F)c(F)c3)cn1)CC21CC1)N1CCOCC1 [Compound 53, [1-[5-(3,4-Difluoro-phenyl)-pyrimidin-2-yl]-spiro[1,2-dihydro-indole-3,1′-cyclopropane]-6-yl]-morpholin-4-yl-methanone] | 0.1 to 1 µM
NC(=O)c1cccc(-c2cnc(N3CC4(CC4)c4ccc(C(=O)N5CCOCC5)cc43)nc2)c1 [Compound 54, 3-[2-[6-(Morpholine-4-carbonyl)-spiro[1,2-dihydro-indole-3,1′-cyclopropane]-1-yl]-pyrimidin-5-yl]-benzamide] | < 0.1 µM
O=C1CN(C(=O)c2ccc3c(c2)N(c2ncc(-c4ccccc4)cn2)CC32CC2)CCN1 [Compound 55, 4-[1-(5-Phenyl-pyrimidin-2-yl)-spiro[1,2-dihydro-indole-3,1′-cyclopropane]-6-carbonyl]-piperazin-2-one] | < 0.1 µM
N#Cc1cccc(-c2cnc(N3CC4(CC4)c4ccc(C(=O)N5CCOCC5)cc43)nc2)c1 [Compound 56, 3-[2-[6-(Morpholine-4-carbonyl)-spiro[1,2-dihydro-indole-3,1′-cyclopropane]-1-yl]-pyrimidin-5-yl]-benzonitrile] | < 0.1 µM
O=C(c1ccc2c(c1)N(c1ncc(-c3cccc(F)c3)cn1)CC21CC1)N1CCOCC1 [Compound 57, [1-[5-(3-Fluorophenyl)-pyrimidin-2-yl]-spiro[1,2-dihydro-indole-3,1′-cyclopropane]-6-yl]-morpholin-4-yl-methanone] | < 0.1 µM

Now from value to molecule:

IC50 | SMILES
< 0.1 µM | COc1ccccc1-c1cnc(N2CC3(CC3)c3ccc(C(=O)N4CCOCC4)cc32)nc1 [Compound 31, [1-[5-(2-Methoxyphenyl)-pyrimidin-2-yl]-spiro[1,2-dihydro-indole-3,1′-cyclopropane]-6-yl]-morpholin-4-yl-methanone]
< 0.1 µM | O=C(c1ccc2c(c1)N(c1ncc(-c3ccccc3F)cn1)CC21CC1)N1CCN(CCO)CC1 [Compound 34, [1-[5-(2-Fluorophenyl)-pyrimidin-2-yl]-spiro[1,2-dihydro-indole-3,1′-cyclopropane]-6-yl]-[4-(2-hydroxy-ethyl)-piperazin-1-yl]-methanone]
0.1 to 1 µM | O=C(c1ccc2c(c1)N(c1ncc(-c3ccccc3F)cn1)CC21CC1)N1CC(O)C1 [Compound 36, [1-[5-(2-Fluorophenyl)-pyrimidin-2-yl]-spiro[1,2-dihydro-indole-3,1′-cyclopropane]-6-yl]-(3-hydroxy-azetidin-1-yl)-methanone]
< 0.1 µM | CN1CCN(C(=O)c2ccc3c(c2)N(c2ncc(-c4ccccc4F)cn2)CC32CC2)CC1=O [Compound 38, 4-[1-[5-(2-Fluorophenyl)-pyrimidin-2-yl]spiro[1,2-dihydro-indole-3,1′-cyclopropane]-6-carbonyl]-1-methyl-piperazin-2-one]
0.1 to 1 µM | O=C(c1ccc2c(c1)N(c1ncc(-c3ccccc3C(F)F)cn1)CC21CC1)N1CCOCC1 [Compound 39, [1-[5-[2-(Difluoro-methyl)-phenyl]-pyrimidin-2-yl]spiro[1,2-dihydro-indole-3,1′-cyclopropane]-6-yl]-morpholin-4-yl-methanone]
< 0.1 µM | N[C@@H]1CCN(C(=O)c2ccc3c(c2)N(c2ncc(-c4ccccc4F)cn2)CC32CC2)C1 [Compound 40, [(3R)-3-Amino-pyrrolidin-1-yl]-[1-[5-(2-fluorophenyl)-pyrimidin-2-yl]-spiro[1,2-dihydro-indole-3,1′-cyclopropane]-6-yl]-methanone]
< 0.1 µM | CN(CCN)C(=O)c1ccc2c(c1)N(c1ncc(-c3ccccc3F)cn1)CC21CC1 [Compound 41, N-(2-Amino-ethyl)-1-[5-(2-fluorophenyl)-pyrimidin-2-yl]-N-methyl-spiro[1,2-dihydro-indole-3,1′-cyclopropane]-6-carboxylic acid amide]
< 0.1 µM | O=C(c1ccc2c(c1)N(c1ncc(-c3ccccc3F)cn1)CC21CC1)N1CC[C@@H](O)C1 [Compound 44, [1-[5-(2-Fluorophenyl)-pyrimidin-2-yl]-spiro[1,2-dihydro-indole-3,1′-cyclopropane]-6-yl]-[(3R)-3-hydroxy-pyrrolidin-1-yl]-methanone]
0.1 to 1 µM | O=C(c1ccc2c(c1)N(c1ncc(-c3ccccc3F)cn1)CC21CC1)N1CC[C@H](O)C1 [Compound 45, [1-[5-(2-Fluorophenyl)-pyrimidin-2-yl]-spiro[1,2-dihydro-indole-3,1′-cyclopropane]-6-yl]-[(3S)-3-hydroxy-pyrrolidin-1-yl]-methanone]
0.1 to 1 µM | CN(C(=O)c1ccc2c(c1)N(c1ncc(-c3ccccc3F)cn1)CC21CC1)C1CC1 [Compound 46, N-Cyclopropyl-1-[5-(2-fluorophenyl)-pyrimidin-2-yl]-N-methyl-spiro[1,2-dihydro-indole-3,1′-cyclopropane]-6-carboxylic acid amide]
0.1 to 1 µM | CCN(CC)C(=O)c1ccc2c(c1)N(c1ncc(-c3ccccc3F)cn1)CC21CC1 [Compound 47, N,N-Diethyl-1-[5-(2-fluorophenyl)-pyrimidin-2-yl]-spiro[1,2-dihydro-indole-3,1′-cyclopropane]-6-carboxylic acid amide]
< 0.1 µM | O=C(c1ccc2c(c1)N(c1ncc(-c3cc(Cl)ccc3F)cn1)CC21CC1)N1CCOCC1 [Compound 58, [1-[5-(5-Chloro-2-fluoro-phenyl)-pyrimidin-2-yl]-spiro[1,2-dihydro-indole-3,1′-cyclopropane]-6-yl]-morpholin-4-yl-methanone]
< 0.1 µM | O=C(c1ccc2c(c1)N(c1ncc(-c3ccccc3)cn1)CC21CC1)N1CCCC1 [Compound 59, [1-(5-Phenyl-pyrimidin-2-yl)-spiro[1,2-dihydro-indole-3,1′-cyclopropane]-6-yl]-pyrrolidin-1-yl-methanone]
